Laboratory results taken from patent US20060194828A1, “Vitamin comprising pyroloquinoline quinone and use thereof” (priority 2003, published 2006).
“Also recorded” adds a separate entry of the source.

Legend:
AASDH activity (mU26) = assay: PQQ-deficient feedstuff given to mice, levels of amino acids and AAA in blood; type: in vivo, mouse; conditions: PQQ-deficient vs PQQ-added (100 ng PQQ·2Na per gram) feedstuff, ICR female mice, 20 days
Text: The mice were fed with feedstuff, to which PQQ had not been added (−PQQ) or had been added (+PQQ) and which had chemically been limited, for 20 days. Thereafter, the peripheral blood was collected therefrom, and amino acids contained in the blood were quantified using an amino acid analyzer. The amount of lysine (A) was indicated with a percentage to the total amount of amino acids in blood. The amount of 2-aminoadipic acid was normalized with lysine (B) or glycine (C). The horizontal line represents the mean value of mice in each group.
In order to clarify the role of PQQ influenced on AASDH activity, feedstuff containing no PQQ was given to mice, and such influence was examined. Chemically defined feedstuff (to which no PQQ was added or 100 ng PQQ·2Na was added per gram of feedstuff) was produced in accordance with the publication (Killgore, J. et al. (1989) Science 245, 850-852; Steinberg, F. M. et al. (1994) J. Nutr. 124, 744-753). The thus produced feedstuff was given to virgin female mice (ICR, 4-week-old) for 20 days. The levels of various amino acids and AAA in blood were measured by the above-described method. […] In particular, when normalization was carried out with the amount of lysine, AAA was reduced most clearly (FIG. 6B).

PQQ-deficient mice = conditions: skin fragility, skeletal abnormality, decreased immune response, poor reproduction and growth; cited from earlier work

Structure (SMILES): O=C(O)c1cc(C(=O)O)c2c(n1)C(=O)C(=O)c1cc(C(=O)O)[nH]c1-2 [PQQ, pyrroloquinoline quinone]
- level of AAA (2-aminoadipic acid) in blood (AASDH activity (mU26); normalized with lysine or glycine): reduced more significantly; also recorded: significantly decreased in PQQ-deficient mice
- amount of lysine in blood (AASDH activity (mU26); percentage to total amino acids in blood): not significantly different; also recorded: not changed
- amount of PQQ added to feedstuff that recovered the abnormalities of PQQ-deficient mice (PQQ-deficient mice): ≥ 800 ng per gram of feedstuff
